Data published in article PMC6286365 (Scientific Reports, 2018).
“Also recorded” adds a separate entry of the source.

Tests used:
human nSMase2 = biological target: T1, human nSMase2 (Homo sapiens, UniProt Q9NY59); test: Mode of inhibition: rate vs SM concentration at several DPTIP concentrations (Michaelis-Menten fits); format: biochemical; set-up: Full length human nSMase2 cDNA with a C-terminal Flag tag; host or cells: HEK293 cells, G418-selected; crude sonicated cell lysate used as the enzyme preparation; settings: with respect to SM
T1 sequence (Q9NY59 1-655): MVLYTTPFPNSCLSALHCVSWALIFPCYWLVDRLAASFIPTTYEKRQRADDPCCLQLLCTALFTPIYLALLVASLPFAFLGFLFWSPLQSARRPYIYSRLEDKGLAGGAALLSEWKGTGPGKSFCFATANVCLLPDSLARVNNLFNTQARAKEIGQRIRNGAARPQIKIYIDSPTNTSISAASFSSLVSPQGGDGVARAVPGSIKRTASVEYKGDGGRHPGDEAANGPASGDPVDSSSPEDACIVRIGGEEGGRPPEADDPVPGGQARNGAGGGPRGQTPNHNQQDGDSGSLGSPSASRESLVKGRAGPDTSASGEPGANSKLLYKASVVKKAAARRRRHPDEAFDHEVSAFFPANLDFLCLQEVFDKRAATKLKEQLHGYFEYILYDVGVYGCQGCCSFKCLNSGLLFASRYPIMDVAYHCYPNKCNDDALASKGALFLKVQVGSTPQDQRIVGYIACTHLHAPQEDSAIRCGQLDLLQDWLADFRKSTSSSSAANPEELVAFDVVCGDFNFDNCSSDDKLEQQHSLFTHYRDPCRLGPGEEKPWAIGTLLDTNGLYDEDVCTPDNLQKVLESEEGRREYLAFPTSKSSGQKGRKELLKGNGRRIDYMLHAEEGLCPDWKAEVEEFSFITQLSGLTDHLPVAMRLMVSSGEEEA

GFAP-GFP mice = test: Striatal IL-1β brain inflammation model: liver cytokines by qRT-PCR; format: in vivo, mouse; settings: 10 mg/kg IP; 2 h post IL-1β
Protocol: As we have previously shown[11],[18], striatal injection of IL-1β in mice expressing GFP-GFAP in astroglia triggers a release of GFP-labelled EVs that rapidly enter into plasma, resulting in cytokine upregulation in liver and peripheral immune cell migration into brain[11]. […] There were two groups of mice: the first group was sacrificed 2 h after IL-1β administration by heart puncture, and GFP-labeled circulating EVs were measured with liver cytokines. […] Counting of astrocyte-released EV (GFP+) from blood and liver cytokine analysis was conducted by single injection of DPTIP. Although release of EVs from astrocytes can be initiated immediately after intracranial injection of IL-1β, infiltration of neutrophils in brain parenchyma occurred 12h-24h after the IL-1β injection. […]
Compounds were given 0.5 h before IL-1β dosing. […] (C) Liver cytokine levels under different treatments as measured by qRT-PCR of RNA isolated from fresh frozen liver tissue. Samples were analyzed in triplicate. **p < 0.01 and *p < 0.05 compared to saline control; ^##p < 0.01 and ^#p < 0.05 compared to IL1-β group. (D) Neutrophil levels in brain as measured by immunohistochemistry using coronal brain sections and Ly6b antibody. (E) Quantitation of (D); **p < 0.01 compared to saline control; ^##p < 0.01 compared to IL1-β group. […]

[1] = Metabolic stability in human liver microsomes with NADPH; format: in vitro ADME; settings: pH 7.4, 1 μM compound, read-out: percent remaining
Protocol: One potential liability when using chemical probes in vivo is lack of metabolic stability which structurally inactivates the compound before it can reach its molecular target. […] Percent of drug remaining over time was determined by liquid chromatography–tandem mass spectrometry analysis (LC/MS/MS).
Metabolic stability assay was conducted in mouse or human liver microsomes as we have described previously with minor modifications. Briefly, the reaction was carried out using potassium phosphate buffer (100 mM, pH 7.4), in the presence of an NADPH regenerating system (compound final concentration was 1 μM; 0.2 mg/mL microsomes). Compound disappearance was monitored over time using a liquid chromatography and tandem mass spectrometry (LC/MS/MS) method. Chromatographic analysis was performed using an Accela ultra high-performance system consisting of an analytical pump and an autosampler coupled with a TSQ Vantage mass spectrometer (Thermo Fisher Scientific Inc., Waltham, MA). […] The mobile phase consisted of 0.1% formic acid in acetonitrile and 0.1% formic acid in water with gradient elution.

Structure (SMILES): COc1cc(-c2nc(-c3cccs3)c(-c3ccccc3)[nH]2)cc(OC)c1O [DPTIP, 2,6-Dimethoxy-4-(5-Phenyl-4-Thiophen-2-yl-1H-Imidazol-2-yl)-Phenol]
- mode of inhibition (human nSMase2): noncompetitive
- effect on upregulation of liver cytokines upon IL-1β treatment (GFAP-GFP mice): reduction of cytokine upregulation in liver; also recorded: inhibited
- remaining at 1 h, 1 μM [1]: 100%
